In US9102686B2, “5,6,7,8,9,10-hexahydro-6,10-epimino[1,2,4]triazolo[4,3-a]azocines as P2X7 modulators” (Janssen Pharmaceutica NV, priority 2013, dated 2015):

Tests used:
[1] = target: T1, rat P2X7 (Rattus norvegicus (Rat), UniProt Q64663); experiment: Radioligand binding, rat P2X7-1321N1 cell membranes, tritiated A-804598; details: rat P2X7-1321N1 membranes, tracer tritiated A-804598, 1 hour 4° C.
Procedure: (§1) P2X7 Antagonism in Recombinant hP2X7 Cells: (a) Ca^2+ Flux (b) Radioligand Binding
(§2) (B) Radioligand binding: human or rat P2X7-1321N1 cells were collected and frozen @−80° C. On the day of the experiment, cell membrane preparations were made according to standard published methods. […] The compound can be prepared as described in the literature. […] The assay was terminated by filtration (GF/B filters pre-soaked with 0.3% PEI) and washed with washing buffer (Tris-HCl 50 mM). The IC50 generated in the binding assay was corrected for tracer concentration and affinity of the tracer to derive at the affinity (Ki) of the test compounds.

[2] = target: T2, human P2X7 (Homo sapiens (Human), UniProt Q99572); experiment: Ca2+ flux (FLIPR) in 1321N1 cells expressing recombinant human P2X7 channel; type: cell-based; details: human P2X7, 250 μM BzATP
T2 sequence (Q99572 whole entry): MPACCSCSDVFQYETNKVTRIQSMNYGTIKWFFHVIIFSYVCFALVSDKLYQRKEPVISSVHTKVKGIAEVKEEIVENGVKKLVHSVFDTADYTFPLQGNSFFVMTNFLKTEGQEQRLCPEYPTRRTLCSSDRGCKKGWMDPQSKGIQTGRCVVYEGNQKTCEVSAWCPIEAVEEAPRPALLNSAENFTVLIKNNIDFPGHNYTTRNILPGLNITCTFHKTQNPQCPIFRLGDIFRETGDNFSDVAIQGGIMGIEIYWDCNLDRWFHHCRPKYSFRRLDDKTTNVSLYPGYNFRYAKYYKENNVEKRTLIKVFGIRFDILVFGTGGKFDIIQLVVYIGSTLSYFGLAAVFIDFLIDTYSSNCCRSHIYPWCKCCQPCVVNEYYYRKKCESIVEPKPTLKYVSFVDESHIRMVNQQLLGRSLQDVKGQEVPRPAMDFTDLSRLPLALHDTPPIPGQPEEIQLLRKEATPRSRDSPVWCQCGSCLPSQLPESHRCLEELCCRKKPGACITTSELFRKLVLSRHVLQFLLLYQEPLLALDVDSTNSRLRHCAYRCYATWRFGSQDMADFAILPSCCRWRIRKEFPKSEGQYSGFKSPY
Procedure: as §1
(§3) (A) Ca^2+flux: 1321N1 cells expressing the recombinant human, rat or mouse P2X7 channel was cultured in HyQ DME/(HyClone/Dulbecco's Modified Eagle Medium) high glucose supplemented with 10% Fetal Bovine Serum (FBS) and appropriate selection marker. Cells were seeded at a density of 25000 cells/well (96-well clear bottom black walled plates) in 100 μl volume/well. On the day of the experiment, cell plates were washed with assay buffer, containing (in mM): 130 NaCl, 2 KCl, 1 CaCl2, 1 MgCl2, 10 HEPES, 5 glucose; pH 7.40 and 300 mOs. After the wash, cells were loaded with the Calcium-4 dye (Molecular Device) and incubated in the dark for 60 minutes. Test compounds were prepared at 250× the test concentration in neat DMSO. Intermediate 96-well compound plates were prepared by transferring 1.2 μL of the compound into 300 μL of assay buffer. A further 3× dilution occurred when transferring 50 μL/well of the compound plate to 100 μL/well in the cell plate. Cells were incubated with test compounds and dye for 30 minutes. […] The fluorescence change was measured 180 seconds after adding the agonist.

[3] = target: T1, rat P2X7; experiment: Ca2+ flux (FLIPR) in 1321N1 cells expressing recombinant rat P2X7 channel; type: cell-based; details: rat P2X7, 250 μM BzATP
Procedure: as §1, §3

[4] = target: T2, human P2X7; experiment: Radioligand binding, human P2X7-1321N1 cell membranes, tritiated A-804598; details: human P2X7-1321N1 membranes, tracer tritiated A-804598, 1 hour 4° C.
Procedure: as §1, §2

T1 sequence (Q64663 whole entry): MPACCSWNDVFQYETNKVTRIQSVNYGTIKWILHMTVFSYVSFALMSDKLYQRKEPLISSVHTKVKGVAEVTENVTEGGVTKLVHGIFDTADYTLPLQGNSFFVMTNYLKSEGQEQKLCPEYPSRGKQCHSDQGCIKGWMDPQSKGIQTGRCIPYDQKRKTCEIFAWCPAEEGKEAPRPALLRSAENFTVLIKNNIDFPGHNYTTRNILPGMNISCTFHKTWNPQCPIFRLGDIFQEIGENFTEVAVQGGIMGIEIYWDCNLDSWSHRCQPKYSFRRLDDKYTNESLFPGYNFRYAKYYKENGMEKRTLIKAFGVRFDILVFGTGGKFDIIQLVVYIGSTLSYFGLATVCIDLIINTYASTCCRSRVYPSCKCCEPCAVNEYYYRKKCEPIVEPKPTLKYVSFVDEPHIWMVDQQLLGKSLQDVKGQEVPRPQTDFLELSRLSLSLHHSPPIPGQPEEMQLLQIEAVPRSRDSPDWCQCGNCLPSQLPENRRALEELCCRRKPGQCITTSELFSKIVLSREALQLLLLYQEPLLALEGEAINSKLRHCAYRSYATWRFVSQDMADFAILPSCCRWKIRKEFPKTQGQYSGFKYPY

| Structure (SMILES) | Ki [1] [nM] | IC50 [2] [nM] | IC50 [3] [nM] | Ki [4] [nM] |
| --- | --- | --- | --- | --- |
| O=C(c1cccc(C(F)(F)F)c1Cl)N1[C@H]2CC[C@@H]1c1nnc(-c3cnccn3)n1C2 [Example 42, (6S,9R)-10-{[2-Chloro-3-(trifluoromethyl)phenyl]carbonyl}-3-pyrazin-2-yl-6,7,8,9-tetrahydro-5H-6,9-epimino[1,2,4]triazolo[4,3-a]azepine] | 7.9 | 20 | 251 | 12.6 |
| O=C(c1cccc(C(F)(F)F)c1Cl)N1[C@H]2CC[C@@H]1c1nnc(-c3ccc[nH]3)n1C2 [Example 62, (6S,9R)-10-{[2-Chloro-3-(trifluoromethyl)phenyl]carbonyl}-3-(1H-pyrrol-2-yl)-6,7,8,9-tetrahydro-5H-6,9-epimino[1,2,4]triazolo[4,3-a]azepine] |  | 19.6 | > 10000 | 6.3 |
| Cc1c(C(=O)N2[C@H]3CC[C@@H]2c2nnc(-c4cscn4)n2C3)cccc1C(F)(F)F [Example 53, (6S,9R)-10-{[2-Methyl-3-(trifluoromethyl)phenyl]carbonyl}-3-(1,3-thiazol-4-yl)-6,7,8,9-tetrahydro-5H-6,9-epimino[1,2,4]triazolo[4,3-a]azepine] | 7.9 | 3.1 | 3860 | 12.6 |
| O=C(c1cccc(C(F)(F)F)c1Cl)N1[C@H]2CC[C@@H]1c1nnc(-c3cncs3)n1C2 [Example 57, (6S,9R)-10-{[2-Chloro-3-(trifluoromethyl)phenyl]carbonyl}-3-(1,3-thiazol-5-yl)-6,7,8,9-tetrahydro-5H-6,9-epimino[1,2,4]triazolo[4,3-a]azepine] |  | 97.7 | > 10000 | 35.5 |
| O=C(c1cccc(C(F)(F)F)c1Cl)N1[C@H]2CC[C@@H]1c1nnc(-c3ccccn3)n1C2 [Example 41, (6S,9R)-10-{[2-Chloro-3-(trifluoromethyl)phenyl]carbonyl}-3-pyridin-2-yl-6,7,8,9-tetrahydro-5H-6,9-epimino[1,2,4]triazolo[4,3-a]azepine] | 7.9 | 6.3 | 1580 | 12.6 |
| O=C(c1cccc(C(F)(F)F)c1Cl)N1[C@H]2CC[C@@H]1c1nnc(-c3cccnc3)n1C2 [Example 48, (6S,9R)-10-{[2-Chloro-3-(trifluoromethyl)phenyl]carbonyl}-3-pyridin-3-yl-6,7,8,9-tetrahydro-5H-6,9-epimino[1,2,4]triazolo[4,3-a]azepine] |  | 13.2 |  | 39.8 |
| O=C(c1ccc(Cl)c(F)c1Cl)N1[C@H]2CC[C@@H]1c1nnc(-c3cscn3)n1C2 [Example 54, (6S,9R)-10-[(2,4-Dichloro-3-fluorophenyl)carbonyl]-3-(1,3-thiazol-4-yl)-6,7,8,9-tetrahydro-5H-6,9-epimino[1,2,4]triazolo[4,3-a]azepine] | 7.9 | 6.1 | 8910 | 25.1 |
| O=C(c1cccc(C(F)(F)F)c1Cl)N1[C@H]2CC[C@@H]1c1nnc(-c3ccc(F)cc3)n1C2 [Example 40, (6S,9R)-10-{[2-Chloro-3-(trifluoromethyl)phenyl]carbonyl}-3-(4-fluorophenyl)-6,7,8,9-tetrahydro-5H-6,9-epimino[1,2,4]triazolo[4,3-a]azepine] | 35.5 | 12.6 | 10000 | 21.9 |
| O=C(c1cccc(C(F)(F)F)c1Cl)N1[C@H]2CC[C@@H]1c1nnc(-c3ccc(Cl)s3)n1C2 [Example 55, (6S,9R)-3-(5-Chlorothiophen-2-yl)-10-{[2-chloro-3-(trifluoromethyl)phenyl]carbonyl}-6,7,8,9-tetrahydro-5H-6,9-epimino[1,2,4]triazolo[4,3-a]azepine] |  | 17.1 |  | 25.1 |
| O=C(c1cccc(C(F)(F)F)c1Cl)N1[C@H]2CC[C@@H]1c1nnc(-c3ncccn3)n1C2 [Example 46, (6S,9R)-10-{[2-Chloro-3-(trifluoromethyl)phenyl]carbonyl}-3-pyrimidin-2-yl-6,7,8,9-tetrahydro-5H-6,9-epimino[1,2,4]triazolo[4,3-a]azepine] | 6.3 | 15.2 | 253 | 15.8 |
| O=C(c1cccc(C(F)(F)F)c1Cl)N1[C@H]2CC[C@@H]1c1nnc(-c3cscn3)n1C2 [Example 49, (6S,9R)-10-{[2-Chloro-3-(trifluoromethyl)phenyl]carbonyl}-3-(1,3-thiazol-4-yl)-6,7,8,9-tetrahydro-5H-6,9-epimino[1,2,4]triazolo[4,3-a]azepine] | 4 | 5 | 13.5 | 20 |
| O=C(c1ccc(F)c(Cl)c1Cl)N1[C@H]2CC[C@@H]1c1nnc(-c3cnccn3)n1C2 [Example 47, (6S,9R)-10-[(2,3-Dichloro-4-fluorophenyl)carbonyl]-3-pyrazin-2-yl-6,7,8,9-tetrahydro-5H-6,9-epimino[1,2,4]triazolo[4,3-a]azepine] |  | 20.3 |  | 10 |
| O=C(c1ccc(F)c(C(F)(F)F)c1Cl)N1[C@H]2CC[C@@H]1c1nnc(-c3cscn3)n1C2 [Example 52, (6S,9R)-10-{[2-Chloro-4-fluoro-3-(trifluoromethyl)phenyl]carbonyl}-3-(1,3-thiazol-4-yl)-6,7,8,9-tetrahydro-5H-6,9-epimino[1,2,4]triazolo[4,3-a]azepine] | 6.3 | 10.2 | 131 | 31.6 |
| O=C(c1cccc(C(F)(F)F)c1Cl)N1[C@H]2CC[C@@H]1c1nnc(-c3cccs3)n1C2 [Example 61, (6S,9R)-10-{[2-Chloro-3-(trifluoromethyl)phenyl]carbonyl}-3-thiophen-2-yl-6,7,8,9-tetrahydro-5H-6,9-epimino[1,2,4]triazolo[4,3-a]azepine] |  | 2.6 | 10000 | 4 |
| Cc1cc(-c2nnc3n2C[C@@H]2CC[C@H]3N2C(=O)c2cccc(C(F)(F)F)c2Cl)[nH]n1 [Example 51, (6S,9R)-10-{[2-Chloro-3-(trifluoromethyl)phenyl]carbonyl}-3-(3-methyl-1H-pyrazol-5-yl)-6,7,8,9-tetrahydro-5H-6,9-epimino[1,2,4]triazolo[4,3-a]azepine] | 7.9 | 14.4 | 4100 | 39.8 |
| Cc1nc(-c2nnc3n2C[C@@H]2CC[C@H]3N2C(=O)c2cccc(C(F)(F)F)c2Cl)cs1 [Example 56, (6S,9R)-10-{[2-Chloro-3-(trifluoromethyl)phenyl]carbonyl}-3-(2-methyl-1,3-thiazol-4-yl)-6,7,8,9-tetrahydro-5H-6,9-epimino[1,2,4]triazolo[4,3-a]azepine] |  | 30.8 |  |  |
| O=C(c1cccc(C(F)(F)F)c1Cl)N1[C@H]2CC[C@@H]1c1nnc(-c3ccsc3)n1C2 [Example 58, (6S,9R)-10-{[2-Chloro-3-(trifluoromethyl)phenyl]carbonyl}-3-thiophen-3-yl-6,7,8,9-tetrahydro-5H-6,9-epimino[1,2,4]triazolo[4,3-a]azepine] |  | 1.7 | 713 | 10 |
| O=C(c1cccc(C(F)(F)F)c1Cl)N1[C@H]2CC[C@@H]1c1nnc(-c3ccc(F)cn3)n1C2 [Example 45, (6S,9R)-10-{[2-Chloro-3-(trifluoromethyl)phenyl]carbonyl}-3-(5-fluoropyridin-2-yl)-6,7,8,9-tetrahydro-5H-6,9-epimino[1,2,4]triazolo[4,3-a]azepine] |  | 13.1 |  | 12.6 |
| O=C(c1ccnc(C(F)(F)F)c1Cl)N1[C@H]2CC[C@@H]1c1nnc(-c3ccc(Cl)s3)n1C2 [Example 60, (6S,9R)-3-(5-Chlorothiophen-2-yl)-10-{[3-chloro-2-(trifluoromethyl)pyridin-4-yl]carbonyl}-6,7,8,9-tetrahydro-5H-6,9-epimino[1,2,4]triazolo[4,3-a]azepine] |  | 14.9 | 2340 | 21.9 |
| Cc1ncsc1-c1nnc2n1C[C@@H]1CC[C@H]2N1C(=O)c1cccc(C(F)(F)F)c1Cl [Example 59, (6S,9R)-10-{[2-Chloro-3-(trifluoromethyl)phenyl]carbonyl}-3-(4-methyl-1,3-thiazol-5-yl)-6,7,8,9-tetrahydro-5H-6,9-epimino[1,2,4]triazolo[4,3-a]azepine] |  | 100 | > 10000 | 126 |
